Here are results for two molecules from PubChem BioAssay AID1845194 (Molecular Pharmacology Branch, DTP, NCI, 2023).

Where only a bound is given, the exact number is not on record here.

In this experiment the test system is 287954-098-R-J1 tumor spheroid viability. As to the kind of experiment: Anticancer human tumor 287954-098-R-J1 patient-derived Ewing sarcoma cell line growth inhibition. Particulars: spheroids with HUVEC and MSC; for viability, T/C: stronger effect = lower value. The source says:
Multicellular complex tumor spheroid response to DNA repair inhibitors in combination with DNA-damaging drugs
This study explores the anticancer activities of DNA-damaging drugs and inhibitors of DNA damage repair, both as single agents and in combinations. Complex tumor spheroids comprised of malignant cells, endothelial cells and mesenchymal stem cells served as an in vitro model for human solid tumors. This model system incorporates physiologically relevant features and patient-derived or established malignant cell lines with clinically relevant genetic alterations from many tumor types. Twenty-six patient-derived or established malignant cell lines were evaluated representing sarcoma, melanoma, small cell lung cancer (SCLC), non-small cell lung cancer (NSCLC), as well as bladder, ovarian and pancreatic cancers. The concentration ranges selected for each drug and investigational agent were based upon clinically achievable concentrations if the clinical Cmax of the agent was known.
Compounds. The drugs and compounds olaparib (NSC753686), talazoparib (NSC767125), berzosertib (NSC777718), elimusertib (NSC800525), nedisertib (NSC802822), VX-984 (NSC792969), AZD-1390 (NSC803789), temozolomide (NSC362856), topotecan (NSC609699), trabectedin (NSC813783), staurosporine (NSC755774), and gemcitabine (NSC613327) were obtained from the National Cancer Institute (NCI) Developmental Therapeutics Program Chemical Repository. The FDA-approved anticancer drug set is available from the Developmental Therapeutics Program at https://dtp.cancer.gov/organization/dscb/obtaining/available_plates.htm. […] The stock solutions were prepared in dimethyl sulfoxide (DMSO, Sigma-Aldrich, St. Louis, MO, cat. D2650) at 400-fold the tested concentration and stored at -70 degrees C. Prior to their use, the stock solutions were diluted in fresh medium and the final DMSO concentration in the assay was 0.25% (v/v). All drugs and investigational agents were tested over a range starting from a high concentration at or near the clinical Cmax and decreasing in half-log increments. If the clinical Cmax for an agent had not been determined, the highest concentration tested was 10 microM.
Cell Lines. The patient-derived cancer cell (PDC) lines: 156681-154-R-J1-PDC, 283228-195-R-J1-PDC, 287954-098-R-J1-PDC, 292921-168-R-J2-PDC, 349418-098-R-PDC, 425362-245-T-J1-PDC, 556581-035-R-J1-PDC, and BL0293-F563-PDC were received from the NCI Patient-Derived Models Repository (PDMR, https://pdmr.cancer.gov). The established cell lines HS-SY-2 (RRID:CVCL_8719), MPNST, and SYO-1 (RRID:CVCL_7146) were obtained from the Sloan Kettering Institute. The alveolar soft parts sarcoma cell line ASPS-1 (RRID:CVCL_S738) was established at the NCI and grown from internal seed stocks. The following established cell lines were purchased from the American Type Culture Collection (ATCC, Manassas, VA): G-401 (ATCC, cat. CRL-1441, RRID:CVCL_0270), SW982 (ATCC, cat. HTB-93, RRID:CVCL_1734), VA-ES-BJ (ATCC, cat. CRL-2138, RRID:CVCL_1785), NCI-H719 (ATCC, cat. CRL-5837, RRID:CVCL_1582), NCI-H196 (ATCC, cat. CRL-5823, RRID:CVCL_1509), NCI-H841 (ATCC, cat. CRL-5845, RRID:CVCL_1595), NCI-H1618 (ATCC, cat. CRL-5879, RRID:CVCL_1480), NCI-H1876 (ATCC, cat. CRL-5902, RRID:CVCL_1503), DMS 114 (ATCC, cat. CRL-2066; RRID:CVCL_1174), NCI-H211 (ATCC, cat. CRL-5824; RRID:CVCL_1529), and SW 1271 (ATCC, cat. CRL-2177, RRID:CVCL_1716). The small cell lung cancer cell line COR-L88 was purchased from Sigma-Aldrich (cat. 92031917-1VL, RRID:CVCL_1141). The non-small cell lung cancer cell lines NCI-H226 (RRID:CVCL_1544) and NCI-H322M (RRID:CVCL_1557) were established at the NCI and grown from internal seed stocks. Pooled donor human umbilical vein endothelial cells (HUVEC, Lonza, cat. CC-2519) and human mesenchymal stem cells (hMSC, Lonza, cat. PT-2501) were purchased from Lonza (Walkersville, MD).
Cell Culture. All cells were maintained in an incubator at 37 degrees C and 5% CO2 with 95% humidity. […]
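Also: spheroids exposed to compound for 7 days before viability readout.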
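For viability, T/C in this document: luminescent signal taken as surrogate of viable cell content; 100% = DMSO vehicle control viability and lower means growth inhibition.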

As for `CNCc1ccc(-c2cc(-c3nc(-c4ccc(S(=O)(=O)C(C)C)cc4)cnc3N)on2)cc1` + COc1cc2c(cc1O)CCNC21CSC2c3c(OC(C)=O)c(C)c4c(c3C(COC1=O)N1C(O)C3Cc5cc(C)c(OC)c(O)c5C(C21)N3C)OCO4, the IC50 (commonly the concentration needed to halve the response being measured) (curve of first compound, second compound 30 pM) is 516 nM; the IC50 (curve of first compound, second compound 94.9 pM) is 207 nM; the IC50 (curve of first compound, second compound 0.0003 µM) worked out at 154 nM; the IC50 (curve of first compound, second compound 0.000949 µM) was less than 9.49 nM; the IC50 (curve of first compound, second compound 0.003 µM) is less than 9.49 nM. The viability, T/C (in general, the ratio of treated to control) is 109% (second compound 30 pM, first compound 0.00949 µM); 108% (second compound 30 pM, first compound 0.03 µM); 110% (second compound 30 pM, first compound 0.0949 µM); 94.5% (second compound 30 pM, first compound 0.3 µM); 0.18% (second compound 30 pM, first compound 0.949 µM); 0.12% (second compound 30 pM, first compound 3 µM). The viability, T/C (second compound 94.9 pM, first compound 0.00949 µM) is 111%; the viability, T/C (second compound 94.9 pM, first compound 0.03 µM) is 106%; the viability, T/C (second compound 94.9 pM, first compound 0.0949 µM) was 113%; the viability, T/C (second compound 94.9 pM, first compound 0.3 µM) was 21.7%; the viability, T/C (second compound 94.9 pM, first compound 0.949 µM) was 0.11%; the viability, T/C (second compound 94.9 pM, first compound 3 µM) is 0.14%. Also, the viability, T/C was 110% (second compound 0.0003 µM, first compound 0.00949 µM); 115% (second compound 0.0003 µM, first compound 0.03 µM); 85.7% (second compound 0.0003 µM, first compound 0.0949 µM); 0.62% (second compound 0.0003 µM, first compound 0.3 µM); 0.04% (second compound 0.0003 µM, first compound 0.949 µM); 0.13% (second compound 0.0003 µM, first compound 3 µM). Besides, the viability, T/C was 0.42% (second compound 0.000949 µM, first compound 0.00949 µM); 0.41% (second compound 0.000949 µM, first compound 0.03 µM); 0.26% (second compound 0.000949 µM, first compound 0.0949 µM); 0.07% (second compound 0.000949 µM, first compound 0.3 µM); 0.03% (second compound 0.000949 µM, first compound 0.949 µM); 0.14% (second compound 0.000949 µM, first compound 3 µM). Moreover, the viability, T/C reads like this: (second compound 0.003 µM, first compound 0.00949 µM) 0.21%; (second compound 0.003 µM, first compound 0.03 µM) 0.22%; (second compound 0.003 µM, first compound 0.0949 µM) 0.18%; (second compound 0.003 µM, first compound 0.3 µM) 0.17%; (second compound 0.003 µM, first compound 0.949 µM) 0.16%; (second compound 0.003 µM, first compound 3 µM) 0.24%.

Regarding `CC[C@@]1(O)C(=O)OCc2c1cc1n(c2=O)Cc2cc3c(CN(C)C)c(O)ccc3nc2-1`, the viability, T/C was 104% [middle of 10 runs] (compound 0.003 µM); 101% [middle of 10 runs] (compound 0.00949 µM); 15.2% [middle of 10 runs] (compound 0.03 µM); 1.9% [middle of 9 runs] (compound 0.0949 µM); 1.83% [middle of 10 runs] (compound 0.3 µM). In addition, the IC50 runs as follows: (compound alone, run of 10/17/2019) 19.4 nM [middle of 5 runs]; (compound alone, run of 10/25/2019) 18.8 nM [middle of 4 runs].
